In US7317115B2, “Mandelates salts of substituted tetracyclic tetrahydrofuran derivatives” (Janssen Pharmaceutica, N.V., priority 2001, dated 2008):
“Also recorded” adds a separate entry of the source. Values belong to the compound of their own block, whether it stands above or below them.

What was measured:
Assay type in all cases: physicochemical
[1] = Adsorption and desorption of water; conditions: 25° C., different relative humidity
Method: The adsorption and desorption of water at 25° C. at different conditions of relative humidity is investigated on an amount of ±10 mg of each salt. The weight change as a function of relative humidity is registered.

[2] = Crystallographic stability (TGA, DSC, IR after storage); conditions: for crystallographic stability: storage two weeks under different relative humidities; as to IR: key: ~Ref: identical with reference
Method: The stability of the crystal structure of the salt is studied after storage of the compounds for a period of two weeks at room temperature (RT) under either 5%, 75% and 25° C./60% relative humidity (RH). The samples are analyzed with thermogravimetry (TGA), differential scanning calorimetry (DSC) and infrared spectroscopy (IR).

[3] = Chemical stability (HPLC and visual inspection after storage); conditions: for HPLC Sum of impurities: in % (unit assumed); for chemical stability: storage 2, 4 and 8 weeks under different conditions
Method: In the chemical stability test program the salts are stored for periods of 2, 4 and 8 weeks under different conditions. These conditions are 40° C./75% RH, 50° C., daylight, RT/5% RH, RT/75% RH, 25° C./60% RH and artificial light. The mandelate salt and the ditoluoyltartrate salt are also stored 8 hours in 0.3 da ICH light. The compounds are analyzed after storage by HPLC and by visual inspection.

[4] = 0.3 da ICH light (2 weeks column; text: 8 hours)
[5] = listed as (+)ditoluoyltartrate salt

Appearance ([2]; 0 days): white | DSC Max ([2]; 0 days): 229.5 °C | DSC ΔH ([2]; 0 days): 141.1 J/g | TGA <100° C. ([2]; 0 days): 0.1% | crystallographic stability ([2]; listed as mandelic acid salt): crystallographic stable | Appearance ([2]; two weeks, 25° C./60% RH): white | DSC Max ([2]; two weeks, 25° C./60% RH): 229.1 °C | DSC ΔH ([2]; two weeks, 25° C./60% RH): 139.0 J/g | IR ([2]; two weeks, 25° C./60% RH): ~Ref | TGA <100° C. ([2]; two weeks, 25° C./60% RH): 0.1% | Appearance ([2]; two weeks, RT/75% RH): white | DSC Max ([2]; two weeks, RT/75% RH): 229.4 °C | DSC ΔH ([2]; two weeks, RT/75% RH): 137.6 J/g | IR ([2]; two weeks, RT/75% RH): ~Ref | TGA <100° C. ([2]; two weeks, RT/75% RH): 0.1% | Appearance ([2]; two weeks, RT/<5% RH): white | DSC Max ([2]; two weeks, RT/<5% RH): 229.1 °C | DSC ΔH ([2]; two weeks, RT/<5% RH): 140.2 J/g | IR ([2]; two weeks, RT/<5% RH): ~Ref | TGA <100° C. ([2]; two weeks, RT/<5% RH): 0.1% | Appearance [3, 4]: white | HPLC Sum of impurities [3, 4]: 1.70 | Appearance ([3]; 25° C./60% RH, 4 weeks): white | HPLC Sum of impurities ([3]; 25° C./60% RH, 4 weeks): 1.71 | Appearance ([3]; 25° C./60% RH, 8 weeks): white | HPLC Sum of impurities ([3]; 25° C./60% RH, 8 weeks): 1.69 | Appearance ([3]; 40° C./75% RH, 2 weeks): white | HPLC Sum of impurities ([3]; 40° C./75% RH, 2 weeks): 1.73 | Appearance ([3]; 40° C./75% RH, 4 weeks): white | HPLC Sum of impurities ([3]; 40° C./75% RH, 4 weeks): 1.73 | Appearance ([3]; 40° C./75% RH, 8 weeks): white | HPLC Sum of impurities ([3]; 40° C./75% RH, 8 weeks): 1.70 | Appearance ([3]; 50° C., 2 weeks): white | HPLC Sum of impurities ([3]; 50° C., 2 weeks): 1.74 | Appearance ([3]; 50° C., 4 weeks): white | HPLC Sum of impurities ([3]; 50° C., 4 weeks): 1.75 | Appearance ([3]; 50° C., 8 weeks): white | HPLC Sum of impurities ([3]; 50° C., 8 weeks): 1.70 | Appearance ([3]; Artificial light (2 weeks)): white | HPLC Sum of impurities ([3]; Artificial light (2 weeks)): 1.70 | Appearance ([3]; Daylight, 2 weeks): white | HPLC Sum of impurities ([3]; Daylight, 2 weeks): 1.73 | Appearance ([3]; Daylight, 4 weeks): white | HPLC Sum of impurities ([3]; Daylight, 4 weeks): 1.71 | Appearance ([3]; Daylight, 8 weeks): white | HPLC Sum of impurities ([3]; Daylight, 8 weeks): 1.72 | Appearance ([3]; RT/75% RH, 4 weeks): white | HPLC Sum of impurities ([3]; RT/75% RH, 4 weeks): 1.75 | Appearance ([3]; RT/75% RH, 8 weeks): white | HPLC Sum of impurities ([3]; RT/75% RH, 8 weeks): 1.76 | Appearance ([3]; RT/<5% RH, 4 weeks): white | HPLC Sum of impurities ([3]; RT/<5% RH, 4 weeks): 1.73 | Appearance ([3]; RT/<5% RH, 8 weeks): white | HPLC Sum of impurities ([3]; RT/<5% RH, 8 weeks): 1.72 | Appearance ([3]; Reference (2 weeks)): white | HPLC Sum of impurities ([3]; Reference (2 weeks)): 1.72
Compound: CNCC1CC2c3ccccc3Cc3ccc(F)cc3C2O1.O=C(O)C(O)c1ccccc1 (single isomer, unassigned) [Compound 1, B-(2α,3aα,12bβ)-11-fluoro-3,3a,8,12b-tetrahydro-N-methyl-2H-dibenzo-[3,4:6,7]cyclohepta[1,2-b]furan-2 methanamine]
water adsorption/desorption behaviour (weight change as a function of relative humidity) ([1]; listed as mandelate salt): stable towards moisture uptake over the whole range of humidity; also recorded: good adsorption/desorption profile | crystallographic stability ([2]; listed as mandelate salt): crystallographically and chemically stable | chemical stability ([3]; listed as mandelate salt): chemically stable in all investigated conditions; also recorded: crystallographically and chemically stable

Compound: CNCC1CC2c3ccccc3Cc3ccc(F)cc3C2O1.O=C(O)CCC(=O)O (single isomer, unassigned) [succinate salt, B-(2α,3aα,12bβ)-11-fluoro-3,3a,8,12b-tetrahydro-N-methyl-2H-dibenzo-[3,4:6,7]cyclohepta[1,2-b]furan-2 methanamine]
water adsorption/desorption behaviour (weight change as a function of relative humidity) [1]: less stable but the weight change as a function of the relative humidity is very small

Appearance ([2]; 0 days): white | DSC Max ([2]; 0 days): 173.7 °C | DSC ΔH ([2]; 0 days): 71.9 J/g | TGA <100° C. ([2]; 0 days): 0.2% | Appearance ([2]; two weeks, 25° C./60% RH): white | DSC Max ([2]; two weeks, 25° C./60% RH): 177.6 °C | DSC ΔH ([2]; two weeks, 25° C./60% RH): 74.7 J/g | IR ([2]; two weeks, 25° C./60% RH): ~Ref | TGA <100° C. ([2]; two weeks, 25° C./60% RH): 0.1% | Appearance ([2]; two weeks, RT/75% RH): white | DSC Max ([2]; two weeks, RT/75% RH): 178.6 °C | DSC ΔH ([2]; two weeks, RT/75% RH): 70.8 J/g | IR ([2]; two weeks, RT/75% RH): ~Ref | TGA <100° C. ([2]; two weeks, RT/75% RH): 0.2% | Appearance ([2]; two weeks, RT/<5% RH): white | DSC Max ([2]; two weeks, RT/<5% RH): 175.6 °C | DSC ΔH ([2]; two weeks, RT/<5% RH): 78.7 J/g | IR ([2]; two weeks, RT/<5% RH): ~Ref | TGA <100° C. ([2]; two weeks, RT/<5% RH): 0.3% | Appearance [3, 4]: white | HPLC Sum of impurities [3, 4]: 1.41 | Appearance ([3]; 40° C./75% RH, 2 weeks): white | HPLC Sum of impurities ([3]; 40° C./75% RH, 2 weeks): 0.98 | Appearance ([3]; 40° C./75% RH, 4 weeks): white | HPLC Sum of impurities ([3]; 40° C./75% RH, 4 weeks): 1.00 | Appearance ([3]; 40° C./75% RH, 8 weeks): white | HPLC Sum of impurities ([3]; 40° C./75% RH, 8 weeks): 1.09 | Appearance ([3]; 50° C., 2 weeks): white | HPLC Sum of impurities ([3]; 50° C., 2 weeks): 1.06 | Appearance ([3]; 50° C., 4 weeks): white | HPLC Sum of impurities ([3]; 50° C., 4 weeks): 1.22 | Appearance ([3]; 50° C., 8 weeks): white | HPLC Sum of impurities ([3]; 50° C., 8 weeks): 1.25 | Appearance ([3]; Artificial light (2 weeks)): white | HPLC Sum of impurities ([3]; Artificial light (2 weeks)): 1.57 | Appearance ([3]; Daylight, 2 weeks): white | HPLC Sum of impurities ([3]; Daylight, 2 weeks): 1.26 | Appearance ([3]; Daylight, 4 weeks): white | HPLC Sum of impurities ([3]; Daylight, 4 weeks): 1.65 | Appearance ([3]; Daylight, 8 weeks): white-yellow | HPLC Sum of impurities ([3]; Daylight, 8 weeks): 1.74 | Appearance ([3]; Reference (2 weeks)): white | HPLC Sum of impurities ([3]; Reference (2 weeks)): 1.01
Compound: B-(2α,3aα,12bβ)-11-fluoro-3,3a,8,12b-tetrahydro-N-methyl-2H-dibenzo-[3,4:6,7]cyclohepta[1,2-b]furan-2 methanamine [(+)ditoluoyltartrate]
water adsorption/desorption behaviour (weight change as a function of relative humidity) [1, 5]: less stable but the weight change as a function of the relative humidity is very small; also recorded: good adsorption desorption profile | crystallographic stability [2, 5]: crystallographic stable; also recorded: crystallographically stable | chemical stability [3, 5]: shows a sensitivity towards temperature and light

Compound: B-(2α,3aα,12bβ)-11-fluoro-3,3a,8,12b-tetrahydro-N-methyl-2H-dibenzo-[3,4:6,7]cyclohepta[1,2-b]furan-2 methanamine [Citrate]
water adsorption/desorption behaviour (weight change as a function of relative humidity) ([1]; listed as citrate salt): hygroscopic and liquefies at high relative humidity | Appearance ([2]; 0 days): yellowish | DSC Max ([2]; 0 days): amorphous | crystallographic stability ([2]; listed as citrate salt): amorphous and liquefies at RT/75% RH | Appearance ([2]; two weeks, RT/75% RH): liquefied | Appearance ([3]; 40° C./75% RH, 2 weeks): liquefied | HPLC Sum of impurities ([3]; 40° C./75% RH, 2 weeks): 4.83 | Appearance ([3]; 40° C./75% RH, 4 weeks): liquefied | HPLC Sum of impurities ([3]; 40° C./75% RH, 4 weeks): 7.91 | Appearance ([3]; 40° C./75% RH, 8 weeks): liquefied | HPLC Sum of impurities ([3]; 40° C./75% RH, 8 weeks): 10.62 | Appearance ([3]; 50° C., 2 weeks): ochre- | HPLC Sum of impurities ([3]; 50° C., 2 weeks): 6.29 | Appearance ([3]; 50° C., 4 weeks): ochre- | HPLC Sum of impurities ([3]; 50° C., 4 weeks): 7.47 | Appearance ([3]; 50° C., 8 weeks): orange- | HPLC Sum of impurities ([3]; 50° C., 8 weeks): 9.07 | Appearance ([3]; Artificial light (2 weeks)): ochre- | HPLC Sum of impurities ([3]; Artificial light (2 weeks)): 8.99 | Appearance ([3]; Daylight, 2 weeks): ochre- | HPLC Sum of impurities ([3]; Daylight, 2 weeks): 5.81 | Appearance ([3]; Daylight, 4 weeks): ochre- | HPLC Sum of impurities ([3]; Daylight, 4 weeks): 5.99 | Appearance ([3]; Daylight, 8 weeks): orange- | HPLC Sum of impurities ([3]; Daylight, 8 weeks): 6.31 | Appearance ([3]; RT/75% RH, 4 weeks): liquefied | HPLC Sum of impurities ([3]; RT/75% RH, 4 weeks): 4.69 | Appearance ([3]; RT/75% RH, 8 weeks): liquefied | HPLC Sum of impurities ([3]; RT/75% RH, 8 weeks): 4.98 | Appearance ([3]; Reference (2 weeks)): yellow | HPLC Sum of impurities ([3]; Reference (2 weeks)): 4.76 | chemical stability ([3]; listed as citrate salt): shows degradation in all investigated conditions; also recorded: chemically not stable

Compound: CNCC1CC2c3ccccc3Cc3ccc(F)cc3C2O1.O=C(O)CC(=O)O (single isomer, unassigned) [malonate salt, B-(2α,3aα,12bβ)-11-fluoro-3,3a,8,12b-tetrahydro-N-methyl-2H-dibenzo-[3,4:6,7]cyclohepta[1,2-b]furan-2 methanamine]
water adsorption/desorption behaviour (weight change as a function of relative humidity) [1]: less stable but the weight change as a function of the relative humidity is very small
